Columns and labels:
[1] = molecular target: T1, muscarinic receptors, ileum (Cavia porcellus, UniProt H0W1Z3); assay: Dissociation constants (KB) on ileum, methacholine antagonism; details: guinea pig ileum, 30 min contact, read-out: KB Ileum (dissociation constant)
T1 construct: The ileum was removed and incubated in Krebs-Henseleit solution; from tissue; host or cells: isolated ileum of guinea pig
Description: Dissociation constants (KB values) were determined in vitro on the guinea pig ileum and spontaneously beating atrium. The ileum was removed and incubated in Krebs-Henseleit solution in an organ bath. Contractions were produced by means of increasing concentrations of methacholine (M) so that a full concentration-activity curve could be plotted.

[2] = molecular target: T2, muscarinic receptors of the atrium (Cavia porcellus, UniProt H0VRN8); assay: Dissociation constants (KB) on spontaneously beating right atrium, methacholine antagonism; parameters: species or system guinea pig; details: guinea pig spontaneously beating atrium, methacholine, 30 min contact; read-out: KB Heart (dissociation constant)
T2 construct: In the isolated, spontaneously beating right atrium; from tissue; host or cells: isolated right atrium of guinea pig
T2 sequence (H0VRN8 1-466): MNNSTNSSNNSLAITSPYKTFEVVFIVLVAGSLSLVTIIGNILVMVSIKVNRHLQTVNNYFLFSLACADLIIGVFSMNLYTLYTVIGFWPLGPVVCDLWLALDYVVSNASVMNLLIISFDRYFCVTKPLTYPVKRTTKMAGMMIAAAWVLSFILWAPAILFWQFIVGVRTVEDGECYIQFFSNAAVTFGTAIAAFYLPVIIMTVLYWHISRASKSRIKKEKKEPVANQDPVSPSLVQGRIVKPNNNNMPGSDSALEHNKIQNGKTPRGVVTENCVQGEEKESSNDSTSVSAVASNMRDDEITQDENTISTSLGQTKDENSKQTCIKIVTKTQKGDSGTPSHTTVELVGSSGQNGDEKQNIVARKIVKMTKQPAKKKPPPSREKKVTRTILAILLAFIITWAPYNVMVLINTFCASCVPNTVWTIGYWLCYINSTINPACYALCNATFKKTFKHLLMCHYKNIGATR
Description: Dissociation constants (KB values) were determined in vitro on the guinea pig ileum and spontaneously beating atrium. The ileum was removed and incubated in Krebs-Henseleit solution in an organ bath. Contractions were produced by means of increasing concentrations of methacholine (M) so that a full concentration-activity curve could be plotted. Then M was washed out, the test substance was added and kept in contact for 30 minutes and again a concentration-activity curve was plotted with M. The dissociation constant was calculated according to Arunlakshana and Schild (Brit. J. Pharmacol. 14, 48, 1959) from the dosage ratio (DR), i.e. the extent of displacement of the concentration-activity curve.
In the isolated, spontaneously beating right atrium M reduced the heart rate as a function of the concentration. This effect was stopped by the addition of an antimuscarinic. Dissociation constants for the muscarinic receptors of the atrium were obtained in the same way as described above. A comparison of the dissociation constants measured in the two different tissues made it possible to identify cardioselective substances.

[3] = molecular target: T3, muscarinic receptors, lachrymal glands (Rattus norvegicus, UniProt P08483); assay: Receptor bonding test in vivo, lachrymal glands (3H-NMS); parameters: species or system female rats; details: iv, 0.5 h, in vivo binding, i.v., 113 ng/kg 3H-NMS, read-out: ID50 Lachrymal glands
T3 construct: from tissue; host or cells: lachrymal glands of female rats, labelled in vivo
Description: For these experiments, female rats with a body weight of about 200 g were used. Before the start of the test the animals were anaesthetised with a dosage of 1.25 g/kg of urethane. The animals were each given the prescribed dosage of test substance by intravenous injection. After 15 minutes, 113 ng/kg of ^3 H-N-methylscopolamine (^3 H-NMS) were administered by the same route. After another 15 minutes the animals were killed and the heart, bronchi and lachrymal glands were removed. These organs were dissolved in Soluene R and the radioactivity was determined. The measurements were assumed to be total bonding. […] ID50 values were determined for the individual organs using these tests.

[4] = molecular target: T4, muscarinic receptors, submandibular gland (Rattus norvegicus, UniProt P08483); assay: Receptor bonding test in vitro, submandibular gland (displacement of 3H-N-methylscopolamine); type: binding, Sprague-Dawley rats; details: 0.3 nmolar 3H-NMS, 30° C., 45 min
T4 construct: After removal of the heart and submandibular gland; from tissue; host or cells: submandibular gland of male Sprague-Dawley rats, homogenate
T4 sequence (P08483 whole entry): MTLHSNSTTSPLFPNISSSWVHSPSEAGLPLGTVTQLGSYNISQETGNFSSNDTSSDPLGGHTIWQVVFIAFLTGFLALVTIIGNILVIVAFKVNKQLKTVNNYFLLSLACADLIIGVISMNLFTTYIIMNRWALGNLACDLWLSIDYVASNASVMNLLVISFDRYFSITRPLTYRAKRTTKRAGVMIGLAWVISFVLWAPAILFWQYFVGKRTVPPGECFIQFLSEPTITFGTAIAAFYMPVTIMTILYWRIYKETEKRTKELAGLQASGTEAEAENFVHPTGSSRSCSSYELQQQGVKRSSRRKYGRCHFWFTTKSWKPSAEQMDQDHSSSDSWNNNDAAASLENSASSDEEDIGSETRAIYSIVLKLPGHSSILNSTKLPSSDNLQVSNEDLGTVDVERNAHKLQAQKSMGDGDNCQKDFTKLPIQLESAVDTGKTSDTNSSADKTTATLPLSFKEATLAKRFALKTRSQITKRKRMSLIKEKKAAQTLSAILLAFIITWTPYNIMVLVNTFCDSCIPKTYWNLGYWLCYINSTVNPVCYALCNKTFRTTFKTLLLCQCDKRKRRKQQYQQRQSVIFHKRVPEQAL

T1 sequence (H0W1Z3 1-590): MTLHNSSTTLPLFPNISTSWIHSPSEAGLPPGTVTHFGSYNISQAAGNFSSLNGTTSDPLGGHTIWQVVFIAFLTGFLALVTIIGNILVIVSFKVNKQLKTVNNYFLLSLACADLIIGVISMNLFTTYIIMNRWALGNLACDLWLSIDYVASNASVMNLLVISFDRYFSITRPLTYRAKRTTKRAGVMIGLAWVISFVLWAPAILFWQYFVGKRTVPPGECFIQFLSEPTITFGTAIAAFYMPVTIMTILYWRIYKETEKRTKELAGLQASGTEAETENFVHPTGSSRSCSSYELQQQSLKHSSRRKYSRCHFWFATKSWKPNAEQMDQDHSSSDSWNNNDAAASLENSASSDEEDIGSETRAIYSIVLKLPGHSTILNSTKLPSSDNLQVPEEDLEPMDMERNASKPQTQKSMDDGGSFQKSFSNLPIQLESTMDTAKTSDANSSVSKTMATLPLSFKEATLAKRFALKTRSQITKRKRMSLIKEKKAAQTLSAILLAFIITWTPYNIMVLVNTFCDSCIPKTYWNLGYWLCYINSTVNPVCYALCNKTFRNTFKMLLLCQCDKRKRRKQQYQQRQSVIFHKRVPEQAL
T3 sequence (P08483 whole entry): as the sequence (P08483 whole entry) above

Kb [1] [nM]	Kb [2] [nM]	ED50 [3] [mg/kg]	IC50 [4] [nM]	SMILES
25.7	2.45	> 10		CCCN(CCC)CC1CCCCN1CCNC(=O)N1c2ccccc2C(=O)Nc2cccnc21 (stereo not shown) [Substance A, 5,11-dihydro-11-[[[2-[2-[(dipropylamino)methyl]-piperidin-1-yl]ethyl]amino]carbonyl]-6H-pyrido[2,3-b][1,4]benzodiazepin-6-one]
3.63	0.24	> 1	15	CCN(CC)CC1CCCCN1CCNC(=O)N1c2ccccc2NC(=O)c2csc(C)c21 (stereo not shown) [Substance B, 4-[[[2-[2-[(diethylamino)methyl]-piperidin-1-yl]ethyl]amino]carbonyl]-4,9-dihydro-3-methyl-10H-thieno[3,4-b][1,5]benzodiazepin-10-one]
83.2	4.9		150	CCN(CC)CC1CCCCN1CCNC(=O)N1c2cc(Cl)ccc2C(=O)Nc2cccnc21 (stereo not shown) [Substance C, 9-chloro-11-[[[2-[2-[(diethylamino)methyl]-piperidin-1-yl]ethyl]amino]carbonyl]-5,11-dihydro-6H-pyrido[2,3-b][1,4]benzodiazepin-6-one]

From patent US4873236A, “Condensed diazepinones, processes for preparing them and pharmaceutical compositions containing these compounds” (Dr. Karl Thomae GmbH, priority 1986, dated 1989)
